In patent US20230097253A1, “NOVEL QUINAZOLINE COMPOUND AS THERAPEUTIC AGENT FOR METABOLIC DISORDERS” (BIOWAY., INC, priority 2020, published 2023):

Key:
[1] = test system: steatosis-induced Huh-7 cells; assay: Expression of fat-oxidation promoting proteins (western blot) compared to existing developed materials; assay type: cell-based; conditions: 250 μM PA, BW-3290 0.5, 2.5, 10 μM vs comparators 1 and 10 μM, 24 hours, FIG. 4
Protocol: (§1) To induce steatosis in Huh-7 cells in each well except for control cells, the Huh-7 cells were treated with PA bound to 2% BSA at a concentration of 250 μM except for the control, and the control cells were pretreated with 2% BSA without FA.
The cells in each well were treated with the compounds of the present invention, BW-3290, 0.5 μM, 2.5 μM, and 10 μM, PF-06409577 1 μM and 10 μM, and elafibranor 1 μM and 10 μM, respectively and then cultured for 24 hours. The control cells and PA treated cells were treated with DMSO. All media were aspirated and the cells were gently washed 3 times with cold PBS.
A cold lysis buffer containing 150 mM sodium chloride (NaCl), 5 mM ethylenediaminetetraacetic acid (EDTA), pH 8.0, […] 4-(2-hydroxyethyl)-1-piperazineethanesulfonic acid (HEPES), 1% nonylphenoxypolyethoxylethanol (NP-40), aprotinin (2 μg/mL), 1 μM pepstatin A, 10 μM leupeptin, 1 mM sodium fluoride (NaF), 0.2 mM sodium orthovanadate ([…]), and 1 μM phenylmethylsulfonyl fluoride (PMSF) was added thereto.
(§2) A whole cell lysate was collected and gently pipetted at least 10 times to ensure complete lysis. The sample was incubated on ice for 20 minutes and centrifuged 4° C. at 13,000 rpm, for 20 minutes. […]
(§3) Images were acquired using an ImageQuant LAS 3000 (Fujifilm, Tokyo, Japan). Data were analyzed.

[2] = test system: steatosis-induced Huh-7 cells; assay: Expression of lipogenesis-related proteins (western blot); assay type: cell-based; conditions: Huh7 cells, 250 μM PA; 0.5, 2.5, 10 μM, 24 hours; FIG. 9-A
Protocol: as §1
The cells in each well were treated with the compound of Chemical Formula 2 0.5 μM, 2.5 μM, and 10 μM and then cultured for 24 hours. The control cells and PA treated cells were treated with DMSO. All media were aspirated and the cells were gently washed 3 times with cold PBS.
(§4) A cold lysis buffer containing 150 mM sodium chloride (NaCl), 5 mM ethylenediaminetetraacetic acid (EDTA), pH 8.0, […] 4-(2-hydroxyethyl)-1-piperazineethanesulfonic acid (HEPES), 1% nonylphenoxypolyethoxylethanol (NP-40), 2 μg/mL aprotinin, 1 μM pepstatin A, 10 μM leupeptin, 1 mM sodium fluoride (NaF), 0.2 mM sodium orthovanadate ([…]), and 1 μM phenylmethylsulfonyl fluoride (PMSF) was added thereto.
as §2, §3

[3] = test system: steatosis-induced Huh7 cells; assay: Protein expression for verification of multiple mode regulator, with and without AMPK inhibitor (western blot); assay type: cell-based
Protocol: as §1
[…] The control cells and PA treated cells were treated with DMSO. All media were aspirated and the cells were gently washed 3 times with cold PBS.
as §4
A whole cell lysate was collected and gently pipetted at least 10 times to ensure complete lysis. The sample was incubated on ice for 20 minutes and centrifuged 4° C. at 13,000 rpm, for 20 minutes. The supernatant was collected, 5× sodium dodecyl sulfate (SDS) sample buffer containing 50 mM Tris-CI (pH 6.8), 2% SDS, 0.1% bromopheol blue, and 10% glycerol was added to the sample, and boiled at 95° C. for 5 minutes.
The wells of 10% SDS-polyacrylamide gel electrophoresis (SDS-PAGE) were loaded with the same amount of a protein along with the molecular weight marker. The gel was electrophoresed at 100 V for 30 minutes in an electrophoresis chamber (Bio-Rad Laboratories, Hercules, Calif., USA).
A polyvinylidene fluoride (PVDF) membrane (MilliporeSigma, Burlington, Mass., USA) was activated with methanol (MeOH) for 1 minute and washed with a transfer buffer containing 25 mM Tris, 190 mM glycine, and 20% MeOH. The gel was placed in the transfer buffer for 10 minutes.
The transfer sandwich (in the order of paper, gel, membrane, and paper) was assembled and it was checked whether no air bubbles were trapped in the transfer sandwich. […]
as §3

[4] = Pharmacokinetic parameters after oral administration; assay type: in vivo, Sprague Dwaley (SD) rats; conditions: male SD rats, 10 mg/kg, FIG. 16
Protocol: An experiment was performed to measure the pharmacokinetic parameters of BW-3290 using three male Sprague Dwaley (SD) rats. As for BW-3290, a formulation with a composition of 95% water containing 5% DMSO and 20% HPbCD was used, and was orally administered at a concentration of 10 mg/kg. Blood samples were collected from the jugular vein at time points of 0.25, 0.5, 1, 4, 8, 10, 12, and 24 hours. The blood samples collected were centrifuged for 15 minutes at 4° C. at 2,500×g to secure plasma. Bioanalysis for the measurement of pharmacokinetic parameters was analyzed by LC-MS/MS.

[5] = test system: DIAMOND™ mouse model; assay: In-vivo activity in DIAMOND mouse model: body weight, liver weight, liver function enzymes; conditions: DIAMOND mice, 16 mg/kg oral once daily for 8 weeks
Protocol: The DIAMOND™ mouse model, an animal model prepared using a Western diet and sugar water, was used. The DIAMOND™ mice were induced with WDSW for 14 weeks, and 12 mice were used for the control group and 12 mice for the BW-3290 treatment group, and BW-3290 was orally administered at 16 mg/kg once daily for 8 weeks. An autopsy was performed at week 22, and blood collection and tissue storage were performed for the individuals in each group.

[6] = week 22, compared to control group (VC), FIG. 17
[7] = vs control group (VC), statistical significance

SMILES: CC(C)C(Nc1ncnc2nc[nH]c12)c1nc2cccc(Cl)c2c(=O)n1-c1ccccc1 (stereo not shown) [BW-3290, 2-(1-((7H-purin-6-yl)amino)-2-methylpropyl)-5-chloro-3-phenylquinazolin-4(3H)-one]
- expression of LCAD (fatty acid oxidation-related protein) compared to PF-064099577 and elafibranor [1]: same or higher effect of fatty acid degradation
- p-ACC expression (inhibition of fat accumulation) compared to PF-064099577 and elafibranor [1]: same or higher effect of inhibiting fat accumulation
- level of FAS protein [2]: decreased in a concentration-dependent manner
- level of SREBP1 protein [2]: decreased in a concentration-dependent manner
- activity of SIRT1 and AMPK (p-AMPK, p-ACC) when AMPK activity is inhibited ([3]; 250 μM PA, 10 μM compound C (AMPK inhibitor), 10 and 20 μM BW-3290, 24 hours, FIG. 15): increases the activity of SIRT1 and AMPK
- AMPK protein expression level ([3]; 0.5, 2.5, 10 μM, FIG. 13): increase in a concentration-dependent manner
- SIRT1 protein expression level ([3]; 0.5, 2.5, 10 μM, FIG. 13): increase in a concentration-dependent manner
- AUClast [4]: excellent
- Cmax [4]: excellent
- concentration after 12 hours after absorption ([4]; plasma): maintained to some extent
- liver/body weight ratio ([5]; week 22): improve
- body weight [5, 6]: decreased
- liver weight [5, 6]: decreased
- alkaline phosphatase (ALP) level ([5]; vs control group (VC)): decreased
- alanine aminotransferase (ALT) level [5, 7]: decreased
- aspartate aminotransferase (AST) level [5, 7]: decreased
